The assay has as its target human APJ receptor (Homo sapiens (Human), UniProt P35414). Briefly: [35S]GTPγS binding assay on membranes from CHO cells stably expressing human APJ receptor. The format is biochemical. The settings on record: read-out: Activity hAPJ SPA EC50 IP. The method in brief: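 Membranes from CHO cells stably expressing FLAG-tagged human APJ; assay buffer GDP, MgCl2 and NaCl levels optimised beforehand. Incubation 90 min at RT, imager read-out. EC50 from non-linear regression on means of several independent experiments.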
Sequence of human APJ receptor (P35414 whole entry): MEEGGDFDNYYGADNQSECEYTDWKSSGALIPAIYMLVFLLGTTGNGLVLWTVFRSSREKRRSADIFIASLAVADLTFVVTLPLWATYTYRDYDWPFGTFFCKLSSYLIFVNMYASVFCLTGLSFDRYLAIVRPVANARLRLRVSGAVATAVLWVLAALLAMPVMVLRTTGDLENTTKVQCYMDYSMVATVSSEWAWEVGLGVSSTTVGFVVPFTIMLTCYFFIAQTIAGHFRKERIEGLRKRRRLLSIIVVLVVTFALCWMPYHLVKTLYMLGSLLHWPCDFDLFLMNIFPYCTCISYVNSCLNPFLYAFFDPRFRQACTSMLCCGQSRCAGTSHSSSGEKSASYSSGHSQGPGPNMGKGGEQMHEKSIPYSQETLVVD
In the case of `COC[C@@H]1COc2ncccc2-c2nnc(NS(=O)(=O)[C@@H](C)[C@H](OC(C)C)c3ncc(C)cn3)n21` (single isomer, unassigned) [Example 67.0, (1R,2S)-N-((5R)-5-(methoxymethyl)-5,6-dihydropyrido[3,2-f][1,2,4]triazolo[4,3-d][1,4]oxazepin-3-yl)-1-(5-methyl-2-pyrimidinyl)-1-(2-propanyloxy)-2-propanesulfonamide or (1R,2S)-N-((5S)-5-(methoxymethyl)-5,6-dihydropyrido[3,2-f][1,2,4]triazolo[4,3-d][1,4]oxazepin-3-yl)-1-(5-methyl-2-pyrimidinyl)-1-(2-propanyloxy)-2-propanesulfonamide], the EC50 was 250 nM.
For `COC[C@@H]1COc2ncccc2-c2nnc(NS(=O)(=O)[C@@H](C)[C@H](OC(C)C)c3ncc(C)cn3)n21` (single isomer, unassigned) [Example 68.0, (1R,2S)-N-((5R)-5-(methoxymethyl)-5,6-dihydropyrido[3,2-f][1,2,4]triazolo[4,3-d][1,4]oxazepin-3-yl)-1-(5-methyl-2-pyrimidinyl)-1-(2-propanyloxy)-2-propanesulfonamide or (1R,2S)-N-((5S)-5-(methoxymethyl)-5,6-dihydropyrido[3,2-f][1,2,4]triazolo[4,3-d][1,4]oxazepin-3-yl)-1-(5-methyl-2-pyrimidinyl)-1-(2-propanyloxy)-2-propanesulfonamide], the EC50 is 3900 nM.
As for `COC[C@@H]1COc2cccnc2-c2nnc(NS(=O)(=O)[C@@H](C)[C@@H](OC(C)C)c3ncc(C)cn3)n21` (single isomer, unassigned) [Example 69.0, (1S,2S)-N-((5R)-5-(methoxymethyl)-5,6-dihydropyrido[2,3-f][1,2,4]triazolo[4,3-d][1,4]oxazepin-3-yl)-1-(5-methyl-2-pyrimidinyl)-1-(2-propanyloxy)-2-propanesulfonamide or (1S,2S)-N-((5S)-5-(methoxymethyl)-5,6-dihydropyrido[2,3-f][1,2,4]triazolo[4,3-d][1,4]oxazepin-3-yl)-1-(5-methyl-2-pyrimidinyl)-1-(2-propanyloxy)-2-propanesulfonamide], the EC50 came out at 230 nM.
Turning to `COC[C@@H]1COc2cccnc2-c2nnc(NS(=O)(=O)[C@@H](C)[C@@H](OC(C)C)c3ncc(C)cn3)n21` (single isomer, unassigned) [Example 70.0, (1S,2S)-N-((5R)-5-(methoxymethyl)-5,6-dihydropyrido[2,3-f][1,2,4]triazolo[4,3-d][1,4]oxazepin-3-yl)-1-(5-methyl-2-pyrimidinyl)-1-(2-propanyloxy)-2-propanesulfonamide or (1S,2S)-N-((5S)-5-(methoxymethyl)-5,6-dihydropyrido[2,3-f][1,2,4]triazolo[4,3-d][1,4]oxazepin-3-yl)-1-(5-methyl-2-pyrimidinyl)-1-(2-propanyloxy)-2-propanesulfonamide], the EC50 is 1210 nM.
Regarding `COc1ccc2c(c1)-c1nnc(NS(=O)(=O)[C@@H](C)[C@@H](OC(C)C)c3ncc(C)cn3)n1C(CO)CO2` (single isomer, unassigned) [Example 150.0, (1S,2S)-N-((5R)-5-(hydroxymethyl)-10-methoxy-5,6-dihydro[1,2,4]triazolo[4,3-d][1,4]benzoxazepin-3-yl)-1-(5-methyl-2-pyrimidinyl)-1-(2-propanyloxy)-2-propanesulfonamide or (1S,2S)-N-((5S)-5-(hydroxymethyl)-10-methoxy-5,6-dihydro[1,2,4]triazolo[4,3-d][1,4]benzoxazepin-3-yl)-1-(5-methyl-2-pyrimidinyl)-1-(2-propanyloxy)-2-propanesulfonamide], the EC50 was 1880 nM.
`COc1ccc2c(c1)-c1nnc(NS(=O)(=O)[C@@H](C)[C@@H](OC(C)C)c3ncc(C)cn3)n1C(CO)CO2` (single isomer, unassigned) [Example 151.0, (1S,2S)-N-((5R)-5-(hydroxymethyl)-10-methoxy-5,6-dihydro[1,2,4]triazolo[4,3-d][1,4]benzoxazepin-3-yl)-1-(5-methyl-2-pyrimidinyl)-1-(2-propanyloxy)-2-propanesulfonamide or (1S,2S)-N-((5S)-5-(hydroxymethyl)-10-methoxy-5,6-dihydro[1,2,4]triazolo[4,3-d][1,4]benzoxazepin-3-yl)-1-(5-methyl-2-pyrimidinyl)-1-(2-propanyloxy)-2-propanesulfonamide]: the EC50 was 1270 nM.
Turning to `COCC1COc2ccc(OC)cc2-c2nnc(NS(=O)(=O)[C@@H](C)[C@@H](OC(C)C)c3ncc(C)cn3)n21` (single isomer, unassigned) [Example 152.0, (1S,2S)-N-((5R)-10-methoxy-5-(methoxymethyl)-5,6-dihydro[1,2,4]triazolo[4,3-d][1,4]benzoxazepin-3-yl)-1-(5-methyl-2-pyrimidinyl)-1-(2-propanyloxy)-2-propanesulfonamide or (1S,2S)-N-((5S)-10-methoxy-5-(methoxymethyl)-5,6-dihydro[1,2,4]triazolo[4,3-d][1,4]benzoxazepin-3-yl)-1-(5-methyl-2-pyrimidinyl)-1-(2-propanyloxy)-2-propanesulfonamide], the EC50 stood at 37 nM.
As to `COCC1COc2ccc(OC)cc2-c2nnc(NS(=O)(=O)[C@@H](C)[C@@H](OC(C)C)c3ncc(C)cn3)n21` (single isomer, unassigned) [Example 153.0, (1S,2S)-N-((5R)-10-methoxy-5-(methoxymethyl)-5,6-dihydro[1,2,4]triazolo[4,3-d][1,4]benzoxazepin-3-yl)-1-(5-methyl-2-pyrimidinyl)-1-(2-propanyloxy)-2-propanesulfonamide or (1S,2S)-N-((5S)-10-methoxy-5-(methoxymethyl)-5,6-dihydro[1,2,4]triazolo[4,3-d][1,4]benzoxazepin-3-yl)-1-(5-methyl-2-pyrimidinyl)-1-(2-propanyloxy)-2-propanesulfonamide], the EC50 amounted to 250 nM.
`Cc1cnc([C@H](OC(C)C)[C@H](C)S(=O)(=O)Nc2nnc3n2[C@H](CO)OCc2ccc(C(F)(F)F)cc2-3)nc1` (single isomer, unassigned) [Example 156.0, (1S,2S)-N-((R)-5-(hydroxymethyl)-10-(trifluoromethyl)-5,6-dihydrobenzo[f][1,2,4]triazolo[4,3-d][1,4]oxazepin-3-yl)-1-isopropoxy-1-(5-methylpyrimidin-2-yl)propane-2-sulfonamide or (1S,2S)-N-((S)-5-(hydroxymethyl)-10-(trifluoromethyl)-5,6 dihydrobenzo[f][1,2,4]triazolo[4,3-d][1,4]oxazepin-3-yl)-1-isopropoxy-1-(5-methylpyrimidin-2-yl)propane-2-snlfonamide]: the half-maximal effective concentration (EC50) worked out at 2110 nM.
On to `Cc1cnc([C@H](OC(C)C)[C@H](C)S(=O)(=O)Nc2nnc3n2C(CO)COc2ccc(C(F)(F)F)cc2-3)nc1` (single isomer, unassigned) [Example 157.0, (1S,2S)-N-((R)-5-(hydroxymethyl)-10-(trifluoromethyl)-5,6-dihydrobenzo[f][1,2,4]triazolo[4,3-d][1,4]oxazepin-3-yl)-1-isopropoxy-1-(5-methylpyrimidin-2-yl)propane-2-sulfonamide or (1S,2S)-N-((S)-5-(hydroxymethyl)-10-(trifluoromethyl)-5,6-dihydrobenzo[f][1,2,4]triazolo[4,3-d][1,4]oxazepin-3-yl)-1-isopropoxy-1-(5-methylpyrimidin-2-yl)propane-2-sulfonamide], for which the EC50 was more than 12500 nM.

(Values after patent publication US11149040B2, “Fused triazole agonists of the APJ receptor” (AMGEN INC., priority 2017, dated 2021).)
